Data published in article PMC12424289, “Programmable Nanostructure Assembly of a Paclitaxel Derivative Enables Tunable Anticancer Therapy via Hydrogen Bond Engineering” (ACS Nano, 2025).

Experiments:
tubulin = assay: Isothermal titration calorimetry with tubulin; type: binding; settings: tubulin 180 μM titrated into 25 μM compound
Method: ITC experiments were performed using a Nano-ITC (TA Instruments, USA) with all samples degassed for 8 min prior to measurement. Experiments were conducted under stirring at 350 rpm. To account for background signals, control experiments were conducted and subtracted from the test data. The resulting heat values were analyzed using an independent model to extract thermodynamic parameters. For tubulin binding studies, solutions were prepared in PEM buffer containing 5% (v/v) DMSO. In each experiment, 400 μL of the […] was loaded into the sample cell, and 400 μL of PEM buffer with 5% (v/v) DMSO was placed in the reference cell. Tubulin solution (180 μM) was titrated into the sample cell in 25 injections of 2 μL each at 4 °C. A control titration of tubulin into PEM buffer (5% DMSO) was performed to account for dilution effects. To assess interactions between PTP and excipients, PTP dispersions (25 μM) were loaded into the sample cell, and water was used in the reference cell. PEG400 solution (6.0 mg·mL^–1) was titrated into a 2.0 mg·mL^–1 PTP dispersion, and HA (2.7 mg·mL^–1) into a 1.0 mg·mL^–1 PTP dispersion. Both titrations were performed at 25 °C with 25 injections of 2 μL each. Control experiments were performed by titrating PEG400 or HA into water to correct for nonspecific heat effects.

[1] = In vitro PTP release (transwell, PBS); type: physicochemical; settings: over 12 h, 5.0 mg·mL^–1 PTP
Method: The in vitro drug release from the PTP assemblies and PTP@HA was assessed in 1 × PBS (pH 7.4). A 0.1 mL dispersion of PTP (5.0 mg·mL^–1) or PTP@HA (equivalent to 5.0 mg·mL^–1 PTP and 20.0 mg·mL^–1 HA) in saline was added to the upper chamber of a 24-well transwell plate (#3413, Corning, USA) equipped with a 0.4 μm polycarbonate membrane (n = 3). The lower chamber contained 0.6 mL 1 × PBS. The setup was maintained at 37 °C with shaking at 100 rpm. At specified time intervals, the PBS in the lower chamber was replaced with fresh PBS. Each collected sample was mixed with 600 μL acetonitrile and vortexed for 1 min. PTP release and PTX degradation products were quantified by HPLC.

subcutaneous 4T1 tumors = assay: Antitumor efficacy and safety in subcutaneous 4T1 tumor model; type: in vivo; settings: 4T1 model, iv 10.0 mg·kg^–1 PTX equivalent, five doses
Method: For pharmacodynamic evaluation, female Balb/c mice (18–22 g, n = 6 per group) bearing subcutaneous 4T1 tumors (approximately 50 mm^3) received intravenous injections every other day for five doses at 10.0 mg·kg^–1 (PTX equivalent). Tumor volume and body weight were monitored daily until day 14, when tumors were excised and photographed. At study termination (day 14), major organs (heart, liver, spleen, lungs, and kidneys) were collected from these mice. The organs were fixed in 4% paraformaldehyde, dehydrated with ethanol, and cleared with xylene. Afterward, the tissues were embedded in paraffin wax and sectioned after dipping wax operation at 60 °C. The sections were then stained with hematoxylin and eosin for histological examination.

[2] = Biodistribution in 4T1 tumor-bearing mice; type: in vivo, Balb/c mice; settings: iv 10.0 mg·kg^–1
Method: For plasma samples, 50 μL of plasma was mixed with 100 μL of a docetaxel acetonitrile solution (15 ng·mL^–1) for protein precipitation. The mixture was vortexed and then centrifuged at 4 °C, 17 000 rpm for 30 min. For tissue samples, mice were euthanized at specified time points, and tissues were harvested and rinsed with saline. Two kidneys, the entire heart, spleen, lung, tumor, and 150–200 mg of liver were placed in grinding tubes. Saline was added at a ratio of 1:5 (m/v), and the tissues were ground using a freezing grinder (Jingxin, China) at 4 °C. Next, 100 μL of docetaxel acetonitrile solution (15 ng·mL^–1) was added to 50 μL of the tissue homogenate. […] The supernatants for both plasma and tissue samples were analyzed by LC-MS as described below.
The concentrations of PTP and PTX in plasma and tissue samples were determined using liquid chromatography–mass spectrometry (LC-MS) with a G6470A system (Agilent, USA) equipped with a C18 column (2.1 × 100 mm, 2.7 μm, Agilent, USA). […]
Pharmacokinetic features were evaluated in Sprague–Dawley rats (200–300 g, n = 6 per group) following a single intravenous administration of PTX solution (1.0 mg·mL^–1), PTP (1.2 mg·mL^–1), or PTP@PEG (1.2 mg·mL^–1) at a dose equivalent to 3.0 mg·kg^–1 PTX. […] Biodistribution was assessed in female Balb/c mice (18–22 g; n = 6 per group) bearing subcutaneous 4T1 tumors (target volume 200–300 mm^3). […]

CC(=O)O[C@H]1C(=O)[C@@]2(C)[C@H]([C@H](OC(=O)c3ccccc3)[C@]3(O)C[C@H](OC(=O)[C@H](OC(=O)CCP(=O)(O)O)[C@@H](NC(=O)c4ccccc4)c4ccccc4)C(C)=C1C3(C)C)[C@]1(OC(C)=O)CO[C@@H]1C[C@@H]2O [PTP, PTX-2’–OOC-P]
molar ratio of tubulin to compound (tubulin; ITC): 1.6 | Gibbs free energy change (ΔG) (tubulin; 5% DMSO, 4 °C): −26.8 kJ·mol^–1 | total release of PTP ([1]; PBS pH 7.4, 37 °C): 40.6% | average release rate ([1]; PBS pH 7.4, 37 °C (data not shown)): 17.5 μg·h^–1 | safety: body weight and renal histology (subcutaneous 4T1 tumors): renal inflammation | biodistribution, organs of accumulation [2]: primarily accumulated in the liver and kidney
